pIC50: −log10 of the molar value. “Also recorded” adds a separate entry of the source. Like-named read-outs stand apart in the source and are kept apart here.
Key:
A549 = test: WST-1 cytotoxicity, A549; type: cell-based, human; details: Homo sapiens
Experimental: (§1) Two different cytotoxicity/proliferation kit was used in this study i.e., WST-1 proliferation assay kit (Roche, Indianapolis, IN, USA; Cat #28620000) and Cell-titer Glo-luminescent cell viability assay (Promega, WI, USA; Cat #0000348721). Majority of the cell proliferation/cytotoxicity experiments were performed with WST-1 assay. Briefly, cells were seeded at the indicated density for 24 h in 96 well plate, media was replaced, and subsequently treated with the test compounds at different doses. […] Cell titer Glo-assay was additionally performed in certain cases to validate the results from WST-1 assay as outlined above following manufacturer's instructions and luminescence was measured using a FLx100 Luminometer (CLARIOSTAR®, Ortenbery, Germany). […] Other proliferation/cytotoxicity assays were also carried out i.e., Quant™-iT PicoGreen ds DNA assay kit (Thermo Scientific, Rockwood, TN, USA, P7589) following manufacturer's instructions, Trypan blue (Sigma, Ayrshire, UK, T8154) and acid phosphatase assay for validation of cytotoxicity/proliferation data from other assays.

H661 = test: WST-1 cytotoxicity, H661; type: cell-based, human; details: Homo sapiens
Experimental: as §1

H1299 = test: WST-1 cytotoxicity, H1299; type: cell-based, human; details: Homo sapiens
Experimental: as §1

U1906E = test: WST-1 cytotoxicity, U1906E; type: cell-based; details: Homo sapiens, 24 h, read-out: Calculated IC50 values
Experimental: as §1

U1906L = test: WST-1 cytotoxicity, U1906L; type: cell-based; details: Homo sapiens, 24 h, read-out: Calculated IC50 values
Experimental: as §1

NB4 = test: WST-1 cytotoxicity, NB4; type: cell-based, human; details: Homo sapiens
Experimental: as §1

HL60 = test: WST-1 cytotoxicity and synergy analysis, HL60; type: cell-based, human; details: Homo sapiens
Experimental: as §1

THP-1 = test: WST-1 cytotoxicity, THP-1; type: cell-based; details: Homo sapiens, THP-1, 24 h, read-out: Calculated IC50 values
Experimental: as §1

Kasumi 6 = test: WST-1 cytotoxicity, Kasumi 6; type: cell-based; details: Homo sapiens, alone, 24 h, read-out: Calculated IC50 values
Experimental: as §1

AML193 = test: WST-1 cytotoxicity, AML193; type: cell-based; details: Homo sapiens, 24 h, read-out: Calculated IC50 values
Experimental: as §1

HepG2 = test: WST-1 cytotoxicity, HepG2; type: cell-based; details: Homo sapiens, HepG2, 24 h, read-out: Calculated IC50 values
Hep3B = test: WST-1 cytotoxicity, Hep3B; type: cell-based; details: Homo sapiens, 24 h, read-out: Calculated IC50 values
Experimental: as §1

HUH7 = test: WST-1 cytotoxicity, HUH7; type: cell-based; details: Homo sapiens, Huh-7, 24 h, read-out: Calculated IC50 values
Experimental: as §1

SHSY5-SY = test: WST-1 cytotoxicity, SHSY5-SY; type: cell-based; details: Homo sapiens, 24 h, read-out: Calculated IC50 values
Experimental: as §1

SNB-19 = test: WST-1 cytotoxicity, SNB-19; type: cell-based; details: Homo sapiens, SNB-19, 24 h, read-out: Calculated IC50 values
Experimental: as §1

8-MGBA = test: WST-1 cytotoxicity, 8-MGBA; type: cell-based; details: Homo sapiens, 8-MG-BA, 24 h, read-out: Calculated IC50 values
Experimental: as §1

LS174T = test: WST-1 cytotoxicity, LS174T; type: cell-based; details: Homo sapiens, 24 h, read-out: Calculated IC50 values
Experimental: as §1

HeLa = test: WST-1 cytotoxicity, HeLa; type: cell-based; details: Homo sapiens, 24 h, read-out: Calculated IC50 values
Experimental: as §1

MCF-7 = test: WST-1 cytotoxicity, MCF-7; type: cell-based, human; details: Homo sapiens
Experimental: as §1

PANC-1 = test: WST-1 cytotoxicity, PANC-1; type: cell-based; details: Homo sapiens, PANC-1, 24 h, read-out: Calculated IC50 values
Experimental: as §1

A375 = test: WST-1 cytotoxicity, A375; type: cell-based; details: Homo sapiens, A-375, 24 h, read-out: Calculated IC50 values
Experimental: as §1

IGROV1 = test: WST-1 cytotoxicity, IGROV1; type: cell-based, human; details: Homo sapiens, IGROV-1, 24 h, read-out: Calculated IC50 values
Experimental: as §1

OV2008 = test: WST-1 cytotoxicity, OV2008; type: cell-based; details: Homo sapiens, 24 h, read-out: Calculated IC50 values
Experimental: as §1

[1] = Toxicity in black mice (C57BL/6), 3 weeks; type: in vivo; details: sodium selenite or selenocystine 3 mg/kg, alone or with diphenyl diselenide 50 and 100 mg/kg
Experimental: Black mice (C57BJ/6) mice were treated perorally every second day with either vehicle (canola oil) or diphenyl diselenide at two different dose levels (50 and 100 mg/kg body weight) for 3 weeks. Final body weight and weight of the major organs were measured at necropsy.
Black mice (C57BJ/6) mice were treated with vehicle (PBS i.p. and canola oil p.o.), sodium selenite (3 mg/kg body weight), selenocystine (3 mg/kg body weight), or in combinations with two different doses of diphenyl diselenide (50 and 100 mg/kg body weight) for 3 weeks. Final body weight and weight of the major organs were measured at necropsy.

[2] = cited from earlier work
[3] = tested on: Primary peripheral blood mononuclear cells; test: WST-1 cytotoxicity, primary PBMCs; details: Homo sapiens, PBMC, 24 h, read-out: Calculated IC50 values
[4] = tested on: Primary Human hepatocytes; test: WST-1 cytotoxicity, primary human hepatocytes; details: Hepatocyte, 24 h, read-out: Calculated IC50 values
[5] = tested on: 23 different human cell lines of multiple cancer origins; test: Cytotoxicity across the cancer cell line panel (summary statements); type: cell-based; details: 5 μM; cancer cell lines of Table 2
Experimental: as §1

H1299 cells = test: Cellular total selenium uptake by ICP-MS; type: cell-based, human; details: 6 h
Experimental: H1299 cells were treated with the indicated concentrations of different selenium compounds either alone or in combinations for 6 h. At the end of the treatment, cells were washed 3-times with cold PBS and collected. Cell pellets were digested and the total selenium concentration was measured using ICP-MS. […] Increased selenium delivery to the cells by diphenyl diselenide warrants increased cytotoxicity in cancer cells, as outlined before.

[6] = tested on: extracellular reduced thiols; test: Extracellular thiols measurement (DTDP method); type: cell-based, human
Experimental: Cell culture media was collected at specified time points after incubation with the respective compounds as described in the respective figure legends and extracellular total thiols were measured using the DTDP method 19. The protocol was adjusted to 96-well plate format. […] Absorbance was measured at 324 nm in a spectrophotometer (PowerWave HT, BioTek, VT, USA). The assay mixture with fresh media was used as a blank.

[7] = tested on: GSH and CySH in HL60 cells; test: Intracellular and extracellular thiols by HPLC; type: cell-based, human; details: listed as DPDS
Experimental: HPLC was performed as described by Luo et al. 21. Samples and standards were derivatized using monobromobimane (Calbiochem, La Jolla, CA) in sodium N-ethylmorpholine. Aliquots of the derivatized samples were filtered using a 0.22 μm Millipore filter. Glutathione (GSH), cysteine (CySH) and g-glutamylcysteine (7-GC) concentrations were then analyzed using high-performance liquid chromatography (HPLC). Both the total and reduced forms were measured. The HPLC separation, of the thiol-bimane adducts, was achieved on a column (4.5×150 mm) packed with 3-μm octadecyl-silica reversed-phase resin (Supelco, Inc., Bellefonte, PA) followed by fluorescent detection at excitation 394 nm and emission 480 nm (Millipore Co., Milford, MA). The system consisted of a Waters 625 LC pump system, a Waters 470 scanning fluorescence detector, and a Waters 717 Ultra WISP sample processor (Millipore, Milford, MA). Elution solvent A was 7.0% aqueous acetonitrile containing 0.25% acetic acid and perchloric acid; the final pH was adjusted to 3.76 with sodium hydroxide. Elution solvent B was 75% acetonitrile. The flow rate was 1.0 ml/min. The derivatives of GSH, CySH and 7-GC were then quantified based on peak areas and compared with standards. The CV for this method is 2.6%.

HMOX and NQO1 = test: mRNA expression of NFE2L2 target genes; type: cell-based, human; details: early time point
[8] = tested on: cystathionine gamma lyase; test: RNA-sequencing; type: cell-based; details: RNA-sequencing data
[9] = tested on: Primary Human hepatocytes
SLC7A11 = SLC7A11 mRNA expression (qRT-PCR); details: HL60 and H1299 cells; listed as DPDS
[10] = tested on: splenocytes comprising normal and leukemic cells; test: Frequency of normal and leukemic splenocytes by flow cytometry (CD45.1); details: 50.0 μM; 67 h
Experimental: Primary mice leukemic cells (CD45.1 background) bearing human MLL-AF9 oncogene were transplanted into healthy secondary mice (CD45.2 background). Following leukemia development in these mice, spleens were collected following euthanasia. Splenocytes, comprising both normal and leukemic cells, were isolated and cultured ex vivo in 24 well plates (1.5×10^6 cells/0.5 ml/well) for 12 h prior to exposing with the indicated compounds for another 67 h. At the end of the exposure, relative frequency of normal (CD45.1 negative) and leukemic (CD45.1 positive) cells were determined using flow cytometry.

[11] = at 10.2 mg/m2 intravenously, human

**Q.** With O=[Se](O)O [Sodium selenite, sodium selenite] as the compound, how does the pIC50 (A549; A549, 24 h, read-out: Calculated IC50 values) read?
**A.** 5.54

**Q.** What about the pIC50 (H661; NCI-H661, 24 h, read-out: Calculated IC50 values) of the same compound?
**A.** 4.28

**Q.** What about the pIC50 (H661; NCI-H661, read-out: Calculated IC50 values of sodium selenite) of the same compound?
**A.** 4.28

**Q.** What about the pIC50 (H1299; NCI-H1299, 24 h, read-out: Calculated IC50 values) of the same compound?
**A.** 5.28

**Q.** What about the pIC50 (H1299; NCI-H1299, read-out: Calculated IC50 values of sodium selenite) of the same compound?
**A.** 5.28

**Q.** What about the pIC50 (U1906E) of the same compound?
**A.** 5.61

**Q.** And the pIC50 (U1906L)?
**A.** 5.80

**Q.** What about the pIC50 (NB4; NB-4, 24 h, read-out: Calculated IC50 values) of the same compound?
**A.** 4.61

**Q.** And the pIC50 (NB4; NB-4, read-out: Calculated IC50 values of sodium selenite)?
**A.** 4.61

**Q.** What about the pIC50 (HL60; HL-60, 24 h, read-out: Calculated IC50 values) of the same compound?
**A.** 4.80

**Q.** What about the pIC50 (HL60; HL-60, read-out: Calculated IC50 values of sodium selenite) of the same compound?
**A.** 4.80

**Q.** And the pIC50 (THP-1)?
**A.** 6.10

**Q.** And the pIC50 (Kasumi 6)?
**A.** 4.59

**Q.** And the pIC50 (AML193)?
**A.** 5.17

**Q.** And the pIC50 (HepG2)?
**A.** 5.12

**Q.** What about the pIC50 (Hep3B) of the same compound?
**A.** 5.78

**Q.** And the pIC50 (HUH7)?
**A.** 5.45

**Q.** What about the pIC50 (SHSY5-SY) of the same compound?
**A.** 4.40

**Q.** What about the pIC50 (SNB-19) of the same compound?
**A.** 5.27

**Q.** And the pIC50 (8-MGBA)?
**A.** 5.37

**Q.** What about the pIC50 (LS174T) of the same compound?
**A.** 5.44

**Q.** And the pIC50 (HeLa)?
**A.** 6.19

**Q.** And the pIC50 (MCF-7; MCF7, 24 h, read-out: Calculated IC50 values)?
**A.** 5.07

**Q.** What about the pIC50 (MCF-7; MCF7, read-out: Calculated IC50 values of sodium selenite) of the same compound?
**A.** 5.07

**Q.** And the pIC50 (PANC-1)?
**A.** 5.10

**Q.** What about the pIC50 (A375) of the same compound?
**A.** 5.21

**Q.** And the pIC50 (IGROV1)?
**A.** 5.29

**Q.** And the pIC50 (OV2008)?
**A.** 5.43

**Q.** What about the “toxic effects (body and organ weight at necropsy)” value [1] of the same compound?
**A.** No demonstrated toxic effects could be observed

**Q.** And the dose-limiting toxicity [2, 11]?
**A.** No dose-limiting toxicity

**Q.** What about the “peak plasma total selenium concentrations” value [2, 11] of the same compound?
**A.** 15.0 to 23.0 µM

**Q.** What about the “plasma concentration (sodium selenite equivalent) that can be reached” value ([2]; high dose intravenous administration, earlier clinical studies) of the same compound?
**A.** > 20 µM

**Q.** And the Maximum-tolerated dose levels ([2]; intravenously administered, human)?
**A.** 10.2 mg/m2

**Q.** What about the human tolerance limit ([2]; intravenously for two weeks, phase I trial NCT01959438) of the same compound?
**A.** 10 mg sodium selenite/m^2 surface area/day

**Q.** And the pIC50 [3]?
**A.** 4.46

**Q.** And the pIC50 [4]?
**A.** 3.69

**Q.** What does the source list for c1ccc([Se][Se]c2ccccc2)cc1 [Diphenyl diselenide, diphenyl diselenide]?
**A.** pIC50 (A549; A549 (Lung), compound alone, 24 h, '>' = dose approximation, read-out: IC50 values): 4.04; pIC50 (H661; NCI-H661, H661 (Lung), compound alone, 24 h, '>' = dose approximation, read-out: IC50 values): 4.33; pIC50 (H1299; NCI-H1299, H1299 (Lung), compound alone, 24 h, '>' = dose approximation, read-out: IC50 values): 4.58; pIC50 (NB4; NB-4, NB4 (Leukemia), compound alone, 24 h, '>' = dose approximation, read-out: IC50 values): 4.40; pIC50 (HL60; HL-60, HL60 (Leukemia), compound alone, 24 h, '>' = dose approximation, read-out: IC50 values): 4.42; pIC50 (MCF-7; MCF7 (Breast), compound alone, 24 h, '>' = dose approximation, read-out: IC50 values): 4.37; toxicity at the specified dose [5]: non-toxic; selenium uptake from sodium selenite or selenocystine (H1299 cells): dramatically increases selenium uptake; extracellular reduced thiols ([6]; HEK293 ATF4 reporter cells, 5.0 μM): no changes; extracellular reduced thiols ([6]; all the tested cell lines, H1299 and HL60): highly effective; intracellular GSH levels and extracellular CySH levels [7]: increased levels of intracellular GSH; also recorded: increases; expression of HMOX and NQO1 (HMOX and NQO1): significantly induced; expression of cystathionine gamma lyase [8]: increased; toxicity to normal human cells [9]: non-toxic; SLC7A11 expression (SLC7A11): Increased SLC7A11 expression; also recorded: potent inducer; frequency of either normal or leukemic cells [10]: marginal inhibitory effect

Reference: patent US20240299401A1, “NOVEL REDOX-BASED THERAPEUTIC APPROACH FOR TREATMENT OF CANCER” (THE PENN STATE RESEARCH FOUNDATION, priority 2020, published 2024)
